Assay results reported in patent publication EP0331184A2, “Peptide equivalents of non-peptides and methods of design therefor” (THE BOARD OF TRUSTEES OF THE UNIVERSITY OF ALABAMA FOR ITS …, priority 1988, dated 1989).

System: dog kidney Na⁺K⁺ATPase
Assay: ³H-ouabain radioreceptor assay
Format: binding
Conditions: 10⁻⁴M concentrations
Procedure: The linked-enzyme, spectrophotometric assay measuring hydrolysis of ATP was performed as described in Example 1. The ³H-ouabain radioreceptor assay was performed in 0.5 ml of 50 mM Tris HCl (pH 7.4) containing 0.5 mM EDTA, 4 mM MgSO₄, 80 mM NaCl, 5mM ATP, 7.5 ug of dog kidney Na⁺K⁺ATPase (Sigma), 7.8 nCi of [21, 22-³H]-ouabain (specific activity = 15.6 Ci/mmol; Amersham), and 0.1% gelatin. Test samples were incubated for 2 hr at 37°C; ATP and ³H-ouabain were absent during the first hour but present during the second hour. The glycopeptide 1-39 used in these experiments was isolated to homogeneity as described in Fig. 6; eOLP refers to the partially purified, endogenous ouabain-like substance described in the text, and its amounts are expressed as ul of acetonitrile/TFA. Samples of these preparations, both in acetonitrile/0.1% trifluoroacetic acid, were evaporated under a stream of nitrogen gas and redissolved in 0.1% gelatin in preparation for assay. ³H-ouabain bound to Na⁺K⁺ATPase was recovered on Whatman GF/F glass microfiber filters using vacuum filtration. The filters had been soaked in 0.3% aqueous polyethylenimine for 2 hr immediately before filtration. The filters were added to scintillation fluid in vials and counted in a liquid scintillation spectrometer. […]

displacing activity in the ³H-ouabain radioreceptor assay | Substance
no displacing activity | lysine vasopressin
no displacing activity | oxytocin
